The target in one assay is Acetylcholinesterase (Electrophorus electricus, UniProt O42275).
In the next assay the target is Cholinesterase (Equus caballus, UniProt P81908). In words: Inhibition of horse serum BChE after 15 mins by Ellman's method. (In general: Ellman's reagent forms a yellow product with free thiols.)

These results are taken from ChEMBL document CHEMBL1649377, “Synthesis, biological assessment and molecular modeling of new dihydroquinoline-3-carboxamides and dihydroquinoline-3-carbohydrazide derivatives as cholinesterase inhibitors, and Ca channel antagonists” (Eur J Med Chem, 2011).

A word on the IC50: it is the concentration at which inhibition is half-maximal. Low readings indicate higher potency, high ones lower potency.

Sequence of Acetylcholinesterase (O42275 whole entry): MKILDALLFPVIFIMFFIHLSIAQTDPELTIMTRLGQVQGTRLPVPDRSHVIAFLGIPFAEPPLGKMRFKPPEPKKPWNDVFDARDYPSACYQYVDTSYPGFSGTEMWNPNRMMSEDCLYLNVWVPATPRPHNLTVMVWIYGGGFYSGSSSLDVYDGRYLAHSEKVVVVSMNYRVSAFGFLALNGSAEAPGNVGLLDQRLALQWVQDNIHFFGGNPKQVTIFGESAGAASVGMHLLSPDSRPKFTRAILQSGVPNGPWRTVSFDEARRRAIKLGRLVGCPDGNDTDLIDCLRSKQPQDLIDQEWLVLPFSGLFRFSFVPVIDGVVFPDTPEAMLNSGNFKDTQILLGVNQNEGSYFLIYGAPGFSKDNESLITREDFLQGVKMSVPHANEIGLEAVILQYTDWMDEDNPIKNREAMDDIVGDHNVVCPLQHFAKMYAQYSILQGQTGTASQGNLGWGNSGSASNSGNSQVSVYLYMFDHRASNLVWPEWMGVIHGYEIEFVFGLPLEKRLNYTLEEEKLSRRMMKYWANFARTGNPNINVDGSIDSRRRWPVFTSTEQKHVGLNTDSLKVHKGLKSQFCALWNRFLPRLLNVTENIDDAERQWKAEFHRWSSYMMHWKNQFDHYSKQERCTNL
Sequence of Cholinesterase (P81908 whole entry): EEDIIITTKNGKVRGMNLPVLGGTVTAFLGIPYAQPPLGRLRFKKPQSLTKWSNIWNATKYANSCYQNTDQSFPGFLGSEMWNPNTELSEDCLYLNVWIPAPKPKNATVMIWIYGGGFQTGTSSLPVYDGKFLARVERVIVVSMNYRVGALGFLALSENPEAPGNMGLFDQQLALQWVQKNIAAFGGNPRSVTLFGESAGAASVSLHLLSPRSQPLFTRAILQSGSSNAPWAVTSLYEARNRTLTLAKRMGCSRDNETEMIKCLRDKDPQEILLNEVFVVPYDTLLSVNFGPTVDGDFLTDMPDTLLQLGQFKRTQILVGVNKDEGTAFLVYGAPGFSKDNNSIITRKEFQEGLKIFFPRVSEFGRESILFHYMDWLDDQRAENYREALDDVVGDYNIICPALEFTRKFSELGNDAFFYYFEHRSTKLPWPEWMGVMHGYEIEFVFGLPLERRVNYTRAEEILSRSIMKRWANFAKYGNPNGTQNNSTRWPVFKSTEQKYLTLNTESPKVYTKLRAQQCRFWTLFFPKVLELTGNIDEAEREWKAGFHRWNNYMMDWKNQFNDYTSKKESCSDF
Description for Acetylcholinesterase: Inhibition of electric eel AChE after 15 mins by Ellman's method

Consider `NCCNCCNCCNC(=O)c1c(O)c2ccccc2[nH]c1=O`, for which the 50% inhibitory concentration (IC50) against Acetylcholinesterase came out at 13 µM; at Cholinesterase it was 19 µM.

In the case of `Cn1c(=O)c(C(=O)NCCNCCNCCN)c(O)c2ccccc21`, the results for the half-inhibitory concentration (IC50) against Acetylcholinesterase and against Cholinesterase were above 30 µM and 5.2 µM, respectively.

In the case of `O=C(N/N=C/c1ccc(O)cc1O)c1c(O)c2c(Cl)cccc2[nH]c1=O`, the IC50 against Acetylcholinesterase is 12 µM; against Cholinesterase, above 30 µM.

On to `CC1=C2C(=O)Nc3c(cccc3[N+](=O)[O-])C2NC(=O)N1C` (racemic), for which the concentration for half-maximal inhibition (IC50) was 8 µM against Acetylcholinesterase and above 30 µM against Cholinesterase.

Take `CCN1C(=O)NC2C(=C1C)C(=O)Nc1c2cccc1[N+](=O)[O-]` (racemic): the half-maximal inhibitory concentration (IC50) was 6 µM against Acetylcholinesterase and above 30 µM against Cholinesterase.
